Test results: patent publication US6632799B2, “Injectable ready-to-use solutions containing an antitumor anthracycline glycoside” (Pharmacia & Upjohn Company, priority 1985, dated 2003)
Structures can show the parent of a compound that is named as a salt.

Columns and labels:
Format in all cases: physicochemical
Details in all cases: for Kobs × 10^3: observed
[1] = Shelf-life (t 90%) forecast of doxorubicin.HCl 2 mg/ml sterile water solution adjusted to pH 3.0
Protocol: The Arrhenius equation for the degradation process was calculated from the Kobs obtained from the different temperatures taken in account for the testing (table 11).
Applying the equation, the rate constants for the pseudo-first order reactions at 4° C., 8° C., 15° C. and 27° C. were calculated, together with the expected t90% at these temperatures.

[2] = Shelf-life (t 90%) forecast of doxorubicin.HCl 2 mg/ml 0.9% sodium chloride solution adjusted to pH 3.0
Protocol: The Arrhenius equation for the degradation process was calculated from the Kobs obtained from the different temperatures taken in account for the testing (table 13).

[3] = Shelf-life (t 90%) forecast of doxorubicin.HCl 2 mg/ml solution in 5% dextrose adjusted to pH 3.0
Protocol: Applying the equation, the rate constants for the pseudo-first order reactions at 4° C., 8° C., and 15° C. and 27° C. were calculated, together with the expected t90% at these temperatures.

[4] = sterile water pH 3.0, 15° C., Arrhenius
[5] = sterile water pH 3.0, 27° C., 8 days
[6] = sterile water pH 3.0, 27° C., 14 days
[7] = sterile water pH 3.0, 27° C., 28 days
[8] = sterile water pH 3.0, 27° C., 32 days
[9] = sterile water pH 3.0, 27° C., 60 days
[10] = sterile water pH 3.0, 27° C., 90 days
[11] = sterile water pH 3.0, 35° C., 4 days
[12] = sterile water pH 3.0, 35° C., 8 days
[13] = sterile water pH 3.0, 35° C., 14 days
[14] = sterile water pH 3.0, 35° C., 32 days
[15] = sterile water pH 3.0, 45° C., 4 days
[16] = sterile water pH 3.0, 45° C., 8 days
[17] = sterile water pH 3.0, 45° C., 28 days
[18] = sterile water pH 3.0, 55° C., 4 days
[19] = sterile water pH 3.0, 55° C., 32 days
[20] = 0.9% NaCl pH 3.0, 27° C., Arrhenius
[21] = 0.9% sodium chloride pH 3.0, 35° C., 0 days
[22] = 0.9% sodium chloride pH 3.0, 35° C., 8 days
[23] = 0.9% sodium chloride pH 3.0, 35° C., 14 days
[24] = 0.9% sodium chloride pH 3.0, 35° C., 21 days
[25] = 0.9% sodium chloride pH 3.0, 35° C., 28 days
[26] = 0.9% sodium chloride pH 3.0, 45° C., 0 days
[27] = 0.9% sodium chloride pH 3.0, 45° C., 4 days
[28] = 0.9% sodium chloride pH 3.0, 45° C., 8 days
[29] = 0.9% sodium chloride pH 3.0, 45° C., 21 days
[30] = 0.9% sodium chloride pH 3.0, 55° C., 0 days
[31] = 0.9% sodium chloride pH 3.0, 55° C., 11 days
[32] = 0.9% sodium chloride pH 3.0, 60° C., 0 days
[33] = 0.9% sodium chloride pH 3.0, 60° C., 1 day
[34] = 0.9% sodium chloride pH 3.0, 60° C., 3 days
[35] = 5% dextrose pH 3.0, 35° C., 4 days
[36] = 5% dextrose pH 3.0, 35° C., 8 days
[37] = 5% dextrose pH 3.0, 35° C., 14 days
[38] = 5% dextrose pH 3.0, 35° C., 17 days
[39] = 5% dextrose pH 3.0, 35° C., 21 days
[40] = 5% dextrose pH 3.0, 45° C., 4 days
[41] = 5% dextrose pH 3.0, 45° C., 8 days
[42] = 5% dextrose pH 3.0, 45° C., 14 days
[43] = 5% dextrose pH 3.0, 45° C., 21 days
[44] = 5% dextrose pH 3.0, 55° C., 17 days
[45] = 5% dextrose pH 3.0, 55° C., 21 days
[46] = 5% dextrose pH 3.0, 60° C., 2 days
[47] = 5% dextrose pH 3.0, 60° C., 4 days
[48] = 5% dextrose pH 3.0, 60° C., 6 days
[49] = 5% dextrose pH 3.0, 60° C., 8 days

- K × 10^3 calculated ([1]; sterile water pH 3.0, 4° C., Arrhenius): 0.019 1/days
- K × 10^3 calculated ([1]; sterile water pH 3.0, 8° C., Arrhenius): 0.038 1/days
- K × 10^3 calculated [1, 4]: 0.130 1/days
- t90% [1, 4]: 810 days
- pH ([1]; sterile water pH 3.0, 27° C., 0 days): 3.00
- Doxorubicin.HCl assay [1, 5]: 1.993 mg/mL
- pH [1, 5]: 2.95
- Doxorubicin.HCl assay [1, 6]: 1.988 mg/mL
- pH [1, 6]: 2.94
- Doxorubicin.HCl assay [1, 7]: 1.941 mg/mL
- pH [1, 7]: 2.94
- Doxorubicin.HCl assay [1, 8]: 1.962 mg/mL
- pH [1, 8]: 2.95
- Doxorubicin.HCl assay [1, 9]: 1.908 mg/mL
- pH [1, 9]: 2.96
- Doxorubicin.HCl assay [1, 10]: 1.850 mg/mL
- pH [1, 10]: 2.93
- K × 10^3 calculated ([1]; sterile water pH 3.0, 27° C., Arrhenius): 0.918 1/days
- Kobs × 10^3 ([1]; sterile water pH 3.0, 27° C.): 0.850 1/days
- pH ([1]; sterile water pH 3.0, 35° C., 0 days): 3.00
- Doxorubicin.HCl assay [1, 11]: 1.985 mg/mL
- pH [1, 11]: 2.96
- Doxorubicin.HCl assay [1, 12]: 1.952 mg/mL
- pH [1, 12]: 2.98
- Doxorubicin.HCl assay [1, 13]: 1.889 mg/mL
- pH [1, 13]: 2.93
- pH ([1]; sterile water pH 3.0, 35° C., 28 days): 2.92
- Doxorubicin.HCl assay [1, 14]: 1.876 mg/mL
- pH [1, 14]: 2.92
- Kobs × 10^3 ([1]; sterile water pH 3.0, 35° C.): 3.506 1/days
- pH ([1]; sterile water pH 3.0, 45° C., 0 days): 3.00
- Doxorubicin.HCl assay [1, 15]: 1.919 mg/mL
- pH [1, 15]: 2.97
- Doxorubicin.HCl assay [1, 16]: 1.851 mg/mL
- pH [1, 16]: 2.95
- pH ([1]; sterile water pH 3.0, 45° C., 14 days): 2.85
- Doxorubicin.HCl assay [1, 17]: 1.393 mg/mL
- pH [1, 17]: 2.90
- pH ([1]; sterile water pH 3.0, 45° C., 32 days): 2.92
- Kobs × 10^3 ([1]; sterile water pH 3.0, 45° C.): 12.790 1/days
- pH ([1]; sterile water pH 3.0, 55° C., 0 days): 3.00
- Doxorubicin.HCl assay [1, 18]: 1.760 mg/mL
- pH [1, 18]: 2.94
- pH ([1]; sterile water pH 3.0, 55° C., 8 days): 2.90
- pH ([1]; sterile water pH 3.0, 55° C., 14 days): 2.80
- Doxorubicin.HCl assay [1, 19]: 0.730 mg/mL
- pH [1, 19]: 2.82
- Kobs × 10^3 ([1]; sterile water pH 3.0, 55° C.): 49.340 1/days
- K × 10^3 calculated ([2]; 0.9% NaCl pH 3.0, 4° C., Arrhenius): 0.017 1/days
- K × 10^3 calculated ([2]; 0.9% NaCl pH 3.0, 8° C., Arrhenius): 0.037 1/days
- K × 10^3 calculated ([2]; 0.9% NaCl pH 3.0, 15° C., Arrhenius): 0.137 1/days
- K × 10^3 calculated [2, 20]: 1.112 1/days
- t90% [2, 20]: 94 days
- Kobs × 10^3 ([2]; 0.9% NaCl pH 3.0, 35° C.): 3.89 1/days
- Kobs × 10^3 ([2]; 0.9% NaCl pH 3.0, 45° C.): 21.61 1/days
- Kobs × 10^3 ([2]; 0.9% NaCl pH 3.0, 55° C.): 75.90 1/days
- Kobs × 10^3 ([2]; 0.9% NaCl pH 3.0, 60° C.): 164.90 1/days
- Doxorubicin.HCl assay [2, 21]: 2.061 mg/mL
- pH [2, 21]: 3.05
- Doxorubicin.HCl assay [2, 22]: 2.045 mg/mL
- pH [2, 22]: 2.98
- Doxorubicin.HCl assay [2, 23]: 1.946 mg/mL
- pH [2, 23]: 2.92
- Doxorubicin.HCl assay [2, 24]: 1.932 mg/mL
- pH [2, 24]: 2.92
- Doxorubicin.HCl assay [2, 25]: 1.852 mg/mL
- pH [2, 25]: 2.98
- Doxorubicin.HCl assay [2, 26]: 2.061 mg/mL
- pH [2, 26]: 3.05
- Doxorubicin.HCl assay [2, 27]: 1.996 mg/mL
- pH [2, 27]: 2.98
- Doxorubicin.HCl assay [2, 28]: 1.724 mg/mL
- pH [2, 28]: 2.97
- pH ([2]; 0.9% sodium chloride pH 3.0, 45° C., 14 days): 2.98
- Doxorubicin.HCl assay [2, 29]: 1.344 mg/mL
- pH [2, 29]: 2.93
- Doxorubicin.HCl assay [2, 30]: 2.061 mg/mL
- pH [2, 30]: 3.05
- pH ([2]; 0.9% sodium chloride pH 3.0, 55° C., 4 days): 2.90
- pH ([2]; 0.9% sodium chloride pH 3.0, 55° C., 8 days): 2.97
- Doxorubicin.HCl assay [2, 31]: 0.900 mg/mL
- pH [2, 31]: 2.95
- Doxorubicin.HCl assay [2, 32]: 2.061 mg/mL
- pH [2, 32]: 3.05
- Doxorubicin.HCl assay [2, 33]: 1.742 mg/mL
- pH [2, 33]: 2.97
- pH ([2]; 0.9% sodium chloride pH 3.0, 60° C., 2 days): 2.96
- Doxorubicin.HCl assay [2, 34]: 1.290 mg/mL
- pH [2, 34]: 2.98
- pH ([2]; 0.9% sodium chloride pH 3.0, 60° C., 4 days): 2.96
- t90% ([3]; 5% dextrose pH 3.0, 27° C., Arrhenius): 82 days
- Doxorubicin.HCl assay ([3]; 5% dextrose pH 3.0, 35° C., 0 days): 2.114 mg/mL
- Doxorubicin.HCl assay [3, 35]: 2.044 mg/mL
- pH [3, 35]: 2.98
- Doxorubicin.HCl assay [3, 36]: 2.034 mg/mL
- pH [3, 36]: 2.94
- Doxorubicin.HCl assay [3, 37]: 2.015 mg/mL
- pH [3, 37]: 2.95
- Doxorubicin.HCl assay [3, 38]: 1.934 mg/mL
- pH [3, 38]: 2.90
- Doxorubicin.HCl assay [3, 39]: 1.859 mg/mL
- pH [3, 39]: 2.94
- Kobs × 10^3 ([3]; 5% dextrose pH 3.0, 35° C.): 4.190 1/days
- Doxorubicin.HCl assay ([3]; 5% dextrose pH 3.0, 45° C., 0 days): 2.114 mg/mL
- Doxorubicin.HCl assay [3, 40]: 1.940 mg/mL
- pH [3, 40]: 2.97
- Doxorubicin.HCl assay [3, 41]: 1.870 mg/mL
- pH [3, 41]: 2.98
- Doxorubicin.HCl assay [3, 42]: 1.684 mg/mL
- pH [3, 42]: 2.95
- pH ([3]; 5% dextrose pH 3.0, 45° C., 17 days): 2.96
- Doxorubicin.HCl assay [3, 43]: 1.410 mg/mL
- pH [3, 43]: 2.96
- Kobs × 10^3 ([3]; 5% dextrose pH 3.0, 45° C.): 14.55 1/days
- Doxorubicin.HCl assay ([3]; 5% dextrose pH 3.0, 55° C., 0 days): 2.114 mg/mL
- pH ([3]; 5% dextrose pH 3.0, 55° C., 4 days): 2.95
- pH ([3]; 5% dextrose pH 3.0, 55° C., 8 days): 2.92
- pH ([3]; 5% dextrose pH 3.0, 55° C., 14 days): 2.99
- Doxorubicin.HCl assay [3, 44]: 0.957 mg/mL
- pH [3, 44]: 2.91
- Doxorubicin.HCl assay [3, 45]: 0.796 mg/mL
- pH [3, 45]: 2.95
- Kobs × 10^3 ([3]; 5% dextrose pH 3.0, 55° C.): 58.11 1/days
- Doxorubicin.HCl assay ([3]; 5% dextrose pH 3.0, 60° C., 0 days): 2.114 mg/mL
- Doxorubicin.HCl assay [3, 46]: 1.752 mg/mL
- pH [3, 46]: 2.96
- Doxorubicin.HCl assay [3, 47]: 1.393 mg/mL
- pH [3, 47]: 2.98
- Doxorubicin.HCl assay [3, 48]: 1.176 mg/mL
- pH [3, 48]: 2.96
- Doxorubicin.HCl assay [3, 49]: 0.925 mg/mL
- pH [3, 49]: 2.97
- Kobs × 10^3 ([3]; 5% dextrose pH 3.0, 60° C.): 102.6 1/days
SMILES: COc1cccc2c1C(=O)c1c(O)c3c(c(O)c1C2=O)C[C@@](O)(C(=O)CO)C[C@@H]3O[C@H]1C[C@H](N)[C@H](O)[C@H](C)O1 [Doxorubicin.HCl, doxorubicin hydrochloride]
- commercially meaningful shelf-life (t90% forecasts) ([1]; 2 mg/ml pH 3.0 aqueous solution): only if the product is stored in a refrigerator
- commercially meaningful shelf-life (t90% forecasts) ([2]; 2 mg/ml pH 3.0 in 0.9% sodium chloride): only if the product is stored in a refrigerator
- commercially meaningful shelf-life (t90% forecasts) ([3]; 2 mg/ml pH 3.0 5% dextrose solution): only if the product is stored in a refrigerator
